Experimental data: patent US20250179059A1 (The Regents of the University of California, priority 2021, published 2025)

Molecular target: T1, human BRD4 bromodomain II (Homo sapiens, UniProt O60885)
T1 construct: human BRD4 bromodomain II [based on Genbank NM_058243, residues 349-460]; host or cells: E. coli
Experiment: Bromodomain binding assay (AlphaScreen), BRD4 BDII
Settings: AlphaScreen assay, Table C2; read-out: BRD4 BDII IC50
Description: Bromodomain Binding Assay
The bromodomain binding assay utilizes AlphaScreen technology. Compounds compete with a biotinylated peptide ligand (from histone H4: aa 1-21, K5/K8/K12/K16Ac-biotin) for binding to a hexahistidine (His6)-tagged bromodomain. Peptide binding is detected by fluorescence signal after singlet oxygen energy transfer from peptide-bound AlphaScreen streptavidin-coated donor beads to His6-tagged bromodomain-bound nickel-chelate acceptor beads (PerkinElmer). Briefly, 8 μL 2.5× bromodomain (E. coli expressed, N-terminal His6-tagged human BRD4 bromodomain II [based on Genbank NM_058243, residues 349-460] or N-terminal His6-tagged human BRD4 bromodomain I [residues 44-170]) in reaction buffer (50 mM HEPES [pH 7.5], 100 mM NaCl, 0.05% CHAPS, 0.1% BSA, 1% DMSO) is added to wells of an assay plate (384-well low flange white, flat bottom, polystyrene microplate, Corning #3572; buffer only is added to some wells as a negative control). A compound concentration series (10 concentrations, 3-fold serial dilutions previously prepared in 100% DMSO, or 100% DMSO only negative control) is delivered to the assay plate with an Echo 550 acoustic liquid handler (Labcyte), followed by plate centrifugation and incubation for 30 minutes at room temperature. Then 4 μL 5× biotinylated peptide ligand is added, followed by plate centrifugation and gentle shaking for 30 minutes at room temperature to mix. After this incubation, 4 μL 5× donor beads are added, and the plate is centrifuged, followed by brief gentle shaking to mix. Finally, 4 μL 5× acceptor beads are added, and the plate is centrifuged, followed by gentle shaking for 60 minutes at room temperature in the dark. AlphaScreen signal (excitation/emission: 680 nm/520-620 nm) is detected with an EnSpire multimode plate reader (PerkinElmer). Percentage peptide binding is plotted as a function of concentration, and curve fitting is used to determine competitive compound binding ICsos.

| Structure (SMILES) | IC50 [nM] |
| --- | --- |
| O=C1NCCN1c1ccc(-c2cccc(-c3cc(N4CCNCC4)no3)c2O)cc1 [Example 41, 1-(2′-Hydroxy-3′-(3-(piperazin-1-yl)isoxazol-5-yl)-[1,1′-biphenyl]-4-yl)imidazolidin-2-one 2,2,2-trifluoroacetate] | 10 to 100 |
| COc1cc(-c2cccc(-c3ccc(NC(C)=O)c(F)c3)c2O)ccc1NC(C)=O [Example 42, N,N′-(3-Fluoro-2′-hydroxy-3″-methoxy-[1,1′:3′,1″-terphenyl]-4,4″-diyl)diacetamide] | 10 to 100 |
| O=C1CCCN1c1ccc(-c2cccc(-c3cc(N4CCNCC4)no3)c2O)cc1 [Example 43, 1-(2′-Hydroxy-3′-(3-(piperazin-1-yl)isoxazol-5-yl)-[1,1′-biphenyl]-4-yl)pyrrolidin-2-one 2,2,2-trifluoroacetate] | 10 to 100 |
| CC(=O)Nc1ccc(-c2cccc(-c3cc(N4CCNCC4)no3)c2O)cc1OC1CC1 [Example 44, N-(3-Cyclopropoxy-2′-hydroxy-3′-(3-(piperazin-1-yl)isoxazol-5-yl)-[1,1′-biphenyl]-4-yl)acetamide 2,2,2-trifluoroacetate] | 10 to 100 |
| CC(=O)Nc1ccc(-c2cccc(-c3ccc(NC(C)=O)c(OC4CCC4)c3)c2O)cc1F [Example 45, N,N′-(3-Cyclobutoxy-3″-fluoro-2′-hydroxy-[1,1′:3′,1″-terphenyl]-4,4″-diyl)diacetamide] | > 100 |
| CC(=O)Nc1ccc(-c2cccc(-c3ccc(NC(C)=O)c(Cl)c3)c2O)cc1F [Example 46, N,N′-(3-Chloro-3″-fluoro-2′-hydroxy-[1,1′:3′,1″-terphenyl]-4,4″-diyl)diacetamide] | > 100 |
| CC(=O)Nc1ccc(-c2cccc(-c3ccc4c(c3)CCN4C(C)=O)c2O)cc1F [Example 47, N-(3′-(1-Acetylindolin-5-yl)-3-fluoro-2′-hydroxy-[1,1′-biphenyl]-4-yl)acetamide] | > 100 |
| O=C(Nc1ccc(-c2cccc(-c3cc(N4CCNCC4)no3)c2O)cc1)C(F)F [Example 48, 2,2-Difluoro-N-(2′-hydroxy-3′-(3-(piperazin-1-yl)isoxazol-5-yl)-[1,1′-biphenyl]-4-yl)acetamide 2,2,2-trifluoroacetate] | > 100 |
| CC(=O)Nc1ccc(-c2cccc(-c3ccc(NC(C)=O)c(C#N)c3)c2O)cc1F [Example 49, N,N′-(3-Cyano-3″-fluoro-2′-hydroxy-[1,1′:3′,1″-terphenyl]-4,4″-diyl)diacetamide] | 10 to 100 |

Further lines, results first:

| IC50 [nM] | Structure (SMILES) |
| --- | --- |
| 10 to 100 | CC(=O)Nc1ccc(-c2cccc(-c3ccc(NC(C)=O)c(F)c3)c2O)cc1C [Example 50, N,N′-(3-Fluoro-2′-hydroxy-3″-methyl-[1,1′:3′,1″-terphenyl]-4,4″-diyl)diacetamide] |
| 10 to 100 | CCOc1cc(-c2cccc(-c3ccc(NC(C)=O)c(F)c3)c2O)ccc1NC(C)=O [Example 52, N,N′-(3-Ethoxy-3″-fluoro-2′-hydroxy-[1,1′:3′,1″-terphenyl]-4,4″-diyl)diacetamide] |
| > 100 | CC(=O)Nc1ccc(-c2cccc(-c3ccc(NC(C)=O)c(Oc4ccccc4)c3)c2O)cc1F [Example 53, N,N′-(3-Fluoro-2′-hydroxy-3″-phenoxy-[1,1′:3′,1″-terphenyl]-4,4″-diyl)diacetamide] |
| > 100 | CC(=O)Nc1ccc(-c2cccc(-c3cccc(F)c3)c2O)cc1F [Example 54, N-(3,3″-Difluoro-2′-hydroxy-[1,1′:3′,1″-terphenyl]-4-yl)acetamide] |
| > 100 | CC(=O)Nc1ccc(-c2cccc(-c3cccc(C)c3)c2O)cc1F [Example 55, N-(3-fluoro-2′-hydroxy-3″-methyl-[1,1′:3′,1″-terphenyl]-4-yl)acetamide] |
| > 100 | COc1cccc(-c2cccc(-c3ccc(NC(C)=O)c(F)c3)c2O)c1 [Example 56, N-(3-fluoro-2′-hydroxy-3″-methoxy-[1,1′:3′,1″-terphenyl]-4-yl)acetamide] |
| > 100 | CC(=O)Nc1ccc(-c2cccc(-c3cc(N4CCN(C(C)=O)CC4)no3)c2O)cc1 [Example 57, N-(3′-(3-(4-Acetylpiperazin-1-yl)isoxazol-5-yl)-2′-hydroxy-[1,1′-biphenyl]-4-yl)acetamide] |
